Test results reported in the NIST ThermoML archive (doi:10.1021/acs.jced.7b00773).
Numbers after ± are expanded uncertainties.

Details: Liquid; for viscosity: Concentric cylinders viscometry

SMILES: CCCC[N+]1(C)CCCC1.O=S(=O)([N-]S(=O)(=O)C(F)(F)F)C(F)(F)F
- viscosity (293.15 K, 100 kPa): 98.53 ± 4.6 mPa·s
- mass density (293.15 K, 100 kPa, Vibrating tube method): 1398.7 ± 3 kg/m3
- viscosity (303.15 K, 100 kPa): 61.87 ± 2.9 mPa·s
- mass density (303.15 K, 100 kPa, Vibrating tube method): 1389.8 ± 3 kg/m3
- mass density (311.6 K, 10000 kPa, Bellows volumetry): 1389.1 ± 3.4 kg/m3
- mass density (311.6 K, 20000 kPa, Bellows volumetry): 1396.1 ± 3.4 kg/m3
- mass density (311.6 K, 30000 kPa, Bellows volumetry): 1402.6 ± 3.4 kg/m3
- mass density (311.6 K, 40000 kPa, Bellows volumetry): 1408.7 ± 3.4 kg/m3
- mass density (311.6 K, 50000 kPa, Bellows volumetry): 1414.5 ± 3.4 kg/m3
- mass density (311.6 K, 60000 kPa, Bellows volumetry): 1420.1 ± 3.4 kg/m3
- mass density (311.6 K, 70000 kPa, Bellows volumetry): 1425.5 ± 3.4 kg/m3
- mass density (311.6 K, 80000 kPa, Bellows volumetry): 1430.7 ± 3.4 kg/m3
- mass density (311.6 K, 90000 kPa, Bellows volumetry): 1435.5 ± 3.4 kg/m3
- mass density (311.6 K, 100000 kPa, Bellows volumetry): 1440.4 ± 3.4 kg/m3
- mass density (311.6 K, 110000 kPa, Bellows volumetry): 1445.5 ± 3.4 kg/m3
- mass density (311.6 K, 120000 kPa, Bellows volumetry): 1449.8 ± 3.4 kg/m3
- mass density (311.6 K, 130000 kPa, Bellows volumetry): 1454.3 ± 3.4 kg/m3
- mass density (311.6 K, 140000 kPa, Bellows volumetry): 1458.6 ± 3.4 kg/m3
- mass density (311.6 K, 150000 kPa, Bellows volumetry): 1462.9 ± 3.4 kg/m3
- mass density (311.6 K, 160000 kPa, Bellows volumetry): 1467.2 ± 3.4 kg/m3
- mass density (311.6 K, 170000 kPa, Bellows volumetry): 1471.2 ± 3.4 kg/m3
- mass density (311.6 K, 180000 kPa, Bellows volumetry): 1475.1 ± 3.4 kg/m3
- mass density (311.6 K, 190000 kPa, Bellows volumetry): 1479 ± 3.4 kg/m3
- mass density (311.6 K, 200000 kPa, Bellows volumetry): 1483 ± 3.4 kg/m3
- viscosity (313.15 K, 100 kPa): 41.45 ± 1.9 mPa·s
- mass density (313.15 K, 100 kPa, Vibrating tube method): 1381 ± 3 kg/m3
- viscosity (323.15 K, 100 kPa): 29.25 ± 1.4 mPa·s
- mass density (323.15 K, 100 kPa, Vibrating tube method): 1372.4 ± 3 kg/m3
- mass density (331.5 K, 10000 kPa, Bellows volumetry): 1372.4 ± 3.4 kg/m3
- mass density (331.5 K, 20000 kPa, Bellows volumetry): 1379.6 ± 3.4 kg/m3
- mass density (331.5 K, 30000 kPa, Bellows volumetry): 1386.5 ± 3.4 kg/m3
- mass density (331.5 K, 40000 kPa, Bellows volumetry): 1393 ± 3.4 kg/m3
- mass density (331.5 K, 50000 kPa, Bellows volumetry): 1399.1 ± 3.4 kg/m3
- mass density (331.5 K, 60000 kPa, Bellows volumetry): 1405 ± 3.4 kg/m3
- mass density (331.5 K, 70000 kPa, Bellows volumetry): 1410.6 ± 3.4 kg/m3
- mass density (331.5 K, 80000 kPa, Bellows volumetry): 1416 ± 3.4 kg/m3
- mass density (331.5 K, 90000 kPa, Bellows volumetry): 1421.3 ± 3.4 kg/m3
- mass density (331.5 K, 100000 kPa, Bellows volumetry): 1426.6 ± 3.4 kg/m3
- mass density (331.5 K, 110000 kPa, Bellows volumetry): 1431.4 ± 3.4 kg/m3
- mass density (331.5 K, 120000 kPa, Bellows volumetry): 1436 ± 3.4 kg/m3
- mass density (331.5 K, 130000 kPa, Bellows volumetry): 1440.6 ± 3.4 kg/m3
- mass density (331.5 K, 140000 kPa, Bellows volumetry): 1445.1 ± 3.4 kg/m3
- mass density (331.5 K, 150000 kPa, Bellows volumetry): 1449.5 ± 3.4 kg/m3
- mass density (331.5 K, 160000 kPa, Bellows volumetry): 1454 ± 3.4 kg/m3
- mass density (331.5 K, 170000 kPa, Bellows volumetry): 1458.1 ± 3.4 kg/m3
- mass density (331.5 K, 180000 kPa, Bellows volumetry): 1462.1 ± 3.4 kg/m3
- mass density (331.5 K, 190000 kPa, Bellows volumetry): 1466.1 ± 3.4 kg/m3
- mass density (331.5 K, 200000 kPa, Bellows volumetry): 1470.2 ± 3.4 kg/m3
- viscosity (333.15 K, 100 kPa): 21.53 ± 0.99 mPa·s
- mass density (333.15 K, 100 kPa, Vibrating tube method): 1363.9 ± 3 kg/m3
- viscosity (343.15 K, 100 kPa): 16.4 ± 0.76 mPa·s
- mass density (343.15 K, 100 kPa, Vibrating tube method): 1355.5 ± 3 kg/m3
- mass density (351.6 K, 10000 kPa, Bellows volumetry): 1355.8 ± 3.4 kg/m3
- mass density (351.6 K, 20000 kPa, Bellows volumetry): 1363.3 ± 3.4 kg/m3
- mass density (351.6 K, 30000 kPa, Bellows volumetry): 1370.6 ± 3.4 kg/m3
- mass density (351.6 K, 40000 kPa, Bellows volumetry): 1377.4 ± 3.4 kg/m3
- mass density (351.6 K, 50000 kPa, Bellows volumetry): 1383.9 ± 3.4 kg/m3
- mass density (351.6 K, 60000 kPa, Bellows volumetry): 1390 ± 3.4 kg/m3
- mass density (351.6 K, 70000 kPa, Bellows volumetry): 1395.9 ± 3.4 kg/m3
- mass density (351.6 K, 80000 kPa, Bellows volumetry): 1401.7 ± 3.4 kg/m3
- mass density (351.6 K, 90000 kPa, Bellows volumetry): 1407.4 ± 3.4 kg/m3
- mass density (351.6 K, 100000 kPa, Bellows volumetry): 1412.4 ± 3.4 kg/m3
- mass density (351.6 K, 110000 kPa, Bellows volumetry): 1417.5 ± 3.4 kg/m3
- mass density (351.6 K, 120000 kPa, Bellows volumetry): 1422.3 ± 3.4 kg/m3
- mass density (351.6 K, 130000 kPa, Bellows volumetry): 1427.1 ± 3.4 kg/m3
- mass density (351.6 K, 140000 kPa, Bellows volumetry): 1431.7 ± 3.4 kg/m3
- mass density (351.6 K, 150000 kPa, Bellows volumetry): 1436.5 ± 3.4 kg/m3
- mass density (351.6 K, 160000 kPa, Bellows volumetry): 1440.8 ± 3.4 kg/m3
- mass density (351.6 K, 170000 kPa, Bellows volumetry): 1445.1 ± 3.4 kg/m3
- mass density (351.6 K, 180000 kPa, Bellows volumetry): 1449.2 ± 3.4 kg/m3
- mass density (351.6 K, 190000 kPa, Bellows volumetry): 1453.3 ± 3.4 kg/m3
- mass density (351.6 K, 200000 kPa, Bellows volumetry): 1457.4 ± 3.4 kg/m3
- viscosity (353.15 K, 100 kPa): 12.86 ± 0.59 mPa·s
- mass density (353.15 K, 100 kPa, Vibrating tube method): 1347.1 ± 3 kg/m3
- viscosity (363.15 K, 100 kPa): 10.33 ± 0.48 mPa·s
- mass density (363.15 K, 100 kPa, Vibrating tube method): 1338.7 ± 3 kg/m3
- mass density (371.6 K, 10000 kPa, Bellows volumetry): 1339.4 ± 3.4 kg/m3
- mass density (371.6 K, 20000 kPa, Bellows volumetry): 1347.4 ± 3.4 kg/m3
- mass density (371.6 K, 30000 kPa, Bellows volumetry): 1355.3 ± 3.4 kg/m3
- mass density (371.6 K, 40000 kPa, Bellows volumetry): 1362.4 ± 3.4 kg/m3
- mass density (371.6 K, 50000 kPa, Bellows volumetry): 1369.3 ± 3.4 kg/m3
- mass density (371.6 K, 60000 kPa, Bellows volumetry): 1375.8 ± 3.4 kg/m3
- mass density (371.6 K, 70000 kPa, Bellows volumetry): 1382 ± 3.4 kg/m3
- mass density (371.6 K, 80000 kPa, Bellows volumetry): 1387.9 ± 3.4 kg/m3
- mass density (371.6 K, 90000 kPa, Bellows volumetry): 1393.8 ± 3.4 kg/m3
- mass density (371.6 K, 100000 kPa, Bellows volumetry): 1399 ± 3.4 kg/m3
- mass density (371.6 K, 110000 kPa, Bellows volumetry): 1404.3 ± 3.4 kg/m3
- mass density (371.6 K, 120000 kPa, Bellows volumetry): 1409.6 ± 3.4 kg/m3
- mass density (371.6 K, 130000 kPa, Bellows volumetry): 1414.5 ± 3.4 kg/m3
- mass density (371.6 K, 140000 kPa, Bellows volumetry): 1419.3 ± 3.4 kg/m3
- mass density (371.6 K, 150000 kPa, Bellows volumetry): 1424 ± 3.4 kg/m3
- mass density (371.6 K, 160000 kPa, Bellows volumetry): 1428.4 ± 3.4 kg/m3
- mass density (371.6 K, 170000 kPa, Bellows volumetry): 1433 ± 3.4 kg/m3
- mass density (371.6 K, 180000 kPa, Bellows volumetry): 1437.4 ± 3.4 kg/m3
- mass density (371.6 K, 190000 kPa, Bellows volumetry): 1441.6 ± 3.4 kg/m3
- mass density (371.6 K, 200000 kPa, Bellows volumetry): 1445.7 ± 3.4 kg/m3
- viscosity (373.15 K, 100 kPa): 8.471 ± 0.39 mPa·s
- mass density (373.15 K, 100 kPa, Vibrating tube method): 1329.8 ± 3 kg/m3
- mass density (391.6 K, 10000 kPa, Bellows volumetry): 1323.3 ± 3.4 kg/m3
- mass density (391.6 K, 20000 kPa, Bellows volumetry): 1331.9 ± 3.4 kg/m3
- mass density (391.6 K, 30000 kPa, Bellows volumetry): 1340.1 ± 3.4 kg/m3
- mass density (391.6 K, 40000 kPa, Bellows volumetry): 1347.7 ± 3.4 kg/m3
- mass density (391.6 K, 50000 kPa, Bellows volumetry): 1354.8 ± 3.4 kg/m3
- mass density (391.6 K, 60000 kPa, Bellows volumetry): 1361.5 ± 3.4 kg/m3
- mass density (391.6 K, 70000 kPa, Bellows volumetry): 1368.2 ± 3.4 kg/m3
- mass density (391.6 K, 80000 kPa, Bellows volumetry): 1374.3 ± 3.4 kg/m3
- mass density (391.6 K, 90000 kPa, Bellows volumetry): 1380.3 ± 3.4 kg/m3
- mass density (391.6 K, 100000 kPa, Bellows volumetry): 1385.9 ± 3.4 kg/m3
- mass density (391.6 K, 110000 kPa, Bellows volumetry): 1391.3 ± 3.4 kg/m3
- mass density (391.6 K, 120000 kPa, Bellows volumetry): 1396.9 ± 3.4 kg/m3
- mass density (391.6 K, 130000 kPa, Bellows volumetry): 1401.9 ± 3.4 kg/m3
- mass density (391.6 K, 140000 kPa, Bellows volumetry): 1406.8 ± 3.4 kg/m3
- mass density (391.6 K, 150000 kPa, Bellows volumetry): 1411.5 ± 3.4 kg/m3
- mass density (391.6 K, 160000 kPa, Bellows volumetry): 1416.3 ± 3.4 kg/m3
- mass density (391.6 K, 170000 kPa, Bellows volumetry): 1420.8 ± 3.4 kg/m3
- mass density (391.6 K, 180000 kPa, Bellows volumetry): 1425.3 ± 3.4 kg/m3
- mass density (391.6 K, 190000 kPa, Bellows volumetry): 1429.7 ± 3.4 kg/m3
- mass density (391.6 K, 200000 kPa, Bellows volumetry): 1434 ± 3.4 kg/m3
- mass density (411.3 K, 10000 kPa, Bellows volumetry): 1307.4 ± 3.4 kg/m3
- mass density (411.3 K, 20000 kPa, Bellows volumetry): 1316.7 ± 3.4 kg/m3
- mass density (411.3 K, 30000 kPa, Bellows volumetry): 1325.3 ± 3.4 kg/m3
- mass density (411.3 K, 40000 kPa, Bellows volumetry): 1333.4 ± 3.4 kg/m3
- mass density (411.3 K, 50000 kPa, Bellows volumetry): 1341 ± 3.4 kg/m3
- mass density (411.3 K, 60000 kPa, Bellows volumetry): 1348 ± 3.4 kg/m3
- mass density (411.3 K, 70000 kPa, Bellows volumetry): 1354.7 ± 3.4 kg/m3
- mass density (411.3 K, 80000 kPa, Bellows volumetry): 1361.2 ± 3.4 kg/m3
- mass density (411.3 K, 90000 kPa, Bellows volumetry): 1367.3 ± 3.4 kg/m3
- mass density (411.3 K, 100000 kPa, Bellows volumetry): 1373.4 ± 3.4 kg/m3
- mass density (411.3 K, 110000 kPa, Bellows volumetry): 1379 ± 3.4 kg/m3
- mass density (411.3 K, 120000 kPa, Bellows volumetry): 1384.4 ± 3.4 kg/m3
- mass density (411.3 K, 130000 kPa, Bellows volumetry): 1389.7 ± 3.4 kg/m3
- mass density (411.3 K, 140000 kPa, Bellows volumetry): 1394.9 ± 3.4 kg/m3
- mass density (411.3 K, 150000 kPa, Bellows volumetry): 1400 ± 3.4 kg/m3
- mass density (411.3 K, 160000 kPa, Bellows volumetry): 1404.8 ± 3.4 kg/m3
- mass density (411.3 K, 170000 kPa, Bellows volumetry): 1409.4 ± 3.4 kg/m3
- mass density (411.3 K, 180000 kPa, Bellows volumetry): 1414.1 ± 3.4 kg/m3
- mass density (411.3 K, 190000 kPa, Bellows volumetry): 1418.5 ± 3.4 kg/m3
- mass density (411.3 K, 200000 kPa, Bellows volumetry): 1422.8 ± 3.4 kg/m3
